One experiment has as its system Zymoseptoria tritici. The experiment in a line: Fungicidal activity: leaf blotch of wheat (SEPTTR), wheat seedlings, booth sprayer to run-off or track spray. Format: in vivo. The settings on record: for pest or weed control at 100 ppm: High-Volume Cereal Activity at 100 ppm; for pest or weed control at 121.5 g/ha: Low-Volume Cereal Activity at 121.5 g/H.
Another experiment relates to Puccinia triticina. The experiment in a line: Fungicidal activity: wheat brown rust (PUCCRT), wheat seedlings, booth sprayer to run-off or track spray. Format: in vivo. The settings on record: for pest or weed control at 100 ppm: High-Volume Cereal Activity at 100 ppm; for pest or weed control at 121.5 g/ha: Low-Volume Cereal Activity at 121.5 g/H.
Setting [1] is: 24 h, 1 Day Protectant, read-out: SEPTTR 1DP.
Setting [2] is: 3DC (Day Curative), read-out: SEPTTR 3DC.
Where [3] appears, read: 24 h, 1 Day Protectant, read-out: PUCCRT 1DP.
Where [4] appears, read: 72 h, 3 Day Curative, read-out: SEPTTR 3DC.
Where [5] appears, read: 72 h, 3 Day Curative, read-out: PUCCRT 3DC.

Where two headings read alike, the source gives them in different places.

As for `CCCO[C@@H](CC)[C@@H](Cc1ccccc1)[C@H](C)OC(=O)C(C)(C)NC(=O)c1nccc(OC)c1OCOC(C)=O` [compound 170], the pest or weed control at 100 ppm with Zymoseptoria tritici (setting [1]), in the experiment with Zymoseptoria tritici (setting [2]) and in the experiment with Puccinia triticina (setting [3]) was 0 to 80% in each case.
`CCCOC[C@@H](Cc1ccccc1)[C@H](C)OC(=O)C(C)(C)NC(=O)c1nccc(OC)c1OCOC(C)=O` [compound 171]: the pest or weed control at 100 ppm with Zymoseptoria tritici (setting [1]) lay within 0 to 80%; in the experiment with Zymoseptoria tritici (setting [2]) it was 0 to 80%; in the experiment with Puccinia triticina (3DC (Day Curative), read-out: PUCCRT 3DC) it was 0 to 80%.
With `CC[C@H](CCCc1ccccc1)[C@@H](CC(C)C)[C@H](C)OC(=O)C(C)NC(=O)c1nccc(OC)c1OC(C)=O` (stereo partly shown) [compound 172], the pest or weed control at 121.5 g/ha in the experiment on Zymoseptoria tritici (setting [1]) lay in the range of 0 to 80%; with Zymoseptoria tritici (setting [4]), 0 to 80%; in the experiment with Puccinia triticina (setting [3]), 80 to 100%; in the experiment with Puccinia triticina (setting [5]), 0 to 80%.
With `CC[C@H](CC1CC1)[C@@H](Cc1ccccc1)[C@H](C)OC(=O)[C@H](C)NC(=O)c1nccc(OC)c1OCOC(C)=O` [compound 173], the pest or weed control at 121.5 g/ha in the experiment with Zymoseptoria tritici (setting [1]) is 80 to 100%; in the experiment with Zymoseptoria tritici (setting [4]), 80 to 100%; in the experiment with Puccinia triticina (setting [3]), 80 to 100%; in the experiment on Puccinia triticina (setting [5]), 0 to 80%.
As for `CC[C@H](Cc1ccccc1)[C@@H](Cc1ccc(F)cc1)[C@H](C)OC(=O)[C@H](C)NC(=O)c1nccc(OC)c1OCOC(C)=O` [compound 174], the pest or weed control at 121.5 g/ha in the experiment on Zymoseptoria tritici (setting [1]) was 80 to 100%; in the experiment on Zymoseptoria tritici (setting [4]) it was 0 to 80%; with Puccinia triticina (setting [3]), 80 to 100%; in the experiment on Puccinia triticina (setting [5]), 0 to 80%.
With `CCCOC[C@@H](Cc1ccccc1)[C@H](C)OC(=O)CNC(=O)c1nccc(OC)c1OCOC(C)=O` [compound 175], the pest or weed control at 121.5 g/ha in the experiment on Zymoseptoria tritici (setting [4]) lay within 0 to 80%; in the experiment with Puccinia triticina (setting [3]) it was 80 to 100%; with Puccinia triticina (setting [5]), 80 to 100%.
Turning to `CCOC[C@H](Oc1ccc(C)cc1)[C@@H](Cc1ccc(F)cc1)[C@H](C)OC(=O)[C@H](C)NC(=O)c1nccc(OC)c1OCOC(C)=O` [compound 177], the pest or weed control at 121.5 g/ha in the experiment with Zymoseptoria tritici (setting [1]) lay in the range of 80 to 100%; in the experiment with Zymoseptoria tritici (setting [4]), 0 to 80%; in the experiment on Puccinia triticina (setting [3]) it was 80 to 100%; in the experiment with Puccinia triticina (setting [5]), 0 to 80%.
`C=C[C@H](Cc1ccc(C(F)(F)F)cc1)[C@@H](Cc1ccc(F)cc1)[C@H](C)OC(=O)[C@H](COC)NC(=O)c1nccc(OC)c1OC(C)=O` [compound 178]: the pest or weed control at 121.5 g/ha in the experiment with Zymoseptoria tritici (setting [1]), in the experiment on Zymoseptoria tritici (setting [4]), in the experiment with Puccinia triticina (setting [3]) and in the experiment on Puccinia triticina (setting [5]) was 0 to 80% throughout.
For the compound `C=C[C@H](Cc1ccc(C(F)(F)F)cc1)[C@@H](Cc1ccc(F)cc1)[C@H](C)OC(=O)[C@H](C)NC(=O)c1nccc(OC)c1OC(C)=O` [compound 179], the results for the pest or weed control at 121.5 g/ha with Zymoseptoria tritici (setting [1]), in the experiment on Zymoseptoria tritici (setting [4]) and in the experiment on Puccinia triticina (setting [3]) were 0 to 80%, 80 to 100% and 80 to 100%, respectively.
For `C=C[C@H](Cc1ccc(C(F)(F)F)cc1)[C@@H](Cc1ccc(F)cc1)[C@H](C)OC(=O)CNC(=O)c1nccc(OC)c1OC(C)=O` [compound 180], the pest or weed control at 121.5 g/ha in the experiment with Zymoseptoria tritici (setting [1]) and with Puccinia triticina (setting [3]) was 0 to 80% throughout.
Turning to `CC[C@H](Cc1ccc(C(F)(F)F)cc1)[C@@H](Cc1ccc(F)cc1)[C@H](C)OC(=O)[C@H](COC)NC(=O)c1nccc(OC)c1OC(C)=O` [compound 181], the pest or weed control at 121.5 g/ha in the experiment with Zymoseptoria tritici (setting [1]) lay within 0 to 80%; with Zymoseptoria tritici (setting [4]) it was 0 to 80%; with Puccinia triticina (setting [3]), 80 to 100%; with Puccinia triticina (setting [5]), 0 to 80%.
`CCC[C@@H](Cc1ccccc1)[C@H](C)OC(=O)[C@H](C)NC(=O)c1nccc(OC)c1OCOC(C)=O` [compound 184]: the pest or weed control at 121.5 g/ha with Zymoseptoria tritici (setting [1]), in the experiment on Zymoseptoria tritici (setting [4]), in the experiment with Puccinia triticina (setting [3]) and in the experiment on Puccinia triticina (setting [5]) was 80 to 100% in each case.
For `COC(=O)[C@@H](Cc1ccccc1)[C@H](C)OC(=O)[C@H](C)NC(=O)c1nccc(OC)c1OCOC(C)=O` [compound 185], the pest or weed control at 121.5 g/ha in the experiment with Zymoseptoria tritici (setting [1]), with Puccinia triticina (setting [3]) and with Puccinia triticina (setting [5]) was 0 to 80% throughout.
Take `CC[C@H](Cc1ccccc1)[C@@H](Cc1ccc(OC(F)(F)F)cc1)[C@H](C)OC(=O)[C@H](C)NC(=O)c1nccc(OC)c1OCOC(C)=O` [compound 187]: the pest or weed control at 121.5 g/ha with Zymoseptoria tritici (setting [1]), in the experiment with Zymoseptoria tritici (setting [4]), with Puccinia triticina (setting [3]) and in the experiment on Puccinia triticina (setting [5]) was 0 to 80% each time.
In the case of `CCCC[C@@H]([C@H](C)OC(=O)[C@H](C)NC(=O)c1nccc(OC)c1OCOC(C)=O)[C@H](CC)Oc1ccccc1` [compound 188], the pest or weed control at 121.5 g/ha in the experiment on Zymoseptoria tritici (setting [1]), in the experiment on Zymoseptoria tritici (setting [4]), in the experiment on Puccinia triticina (setting [3]) and in the experiment with Puccinia triticina (setting [5]) was 80 to 100% in each case.
On to `CCCC[C@@H]([C@H](C)OC(=O)[C@H](C)NC(=O)c1nccc(OC)c1OCOC(C)=O)[C@@H](CC)Oc1ccccc1` [compound 189], for which the pest or weed control at 121.5 g/ha was 80 to 100% in the experiment on Zymoseptoria tritici (setting [1]), 0 to 80% in the experiment on Zymoseptoria tritici (setting [4]), 80 to 100% in the experiment on Puccinia triticina (setting [3]) and 80 to 100% in the experiment with Puccinia triticina (setting [5]).
On to `CCCC[C@@H]([C@H](C)OC(=O)[C@H](C)NC(=O)c1nccc(OC)c1OC(=O)O)[C@@H](CC)Oc1ccccc1` [compound 190], for which the pest or weed control at 121.5 g/ha with Zymoseptoria tritici (setting [1]), in the experiment on Zymoseptoria tritici (setting [4]), in the experiment with Puccinia triticina (setting [3]) and with Puccinia triticina (setting [5]) was 80 to 100% in each case.
For the compound `CC[C@H](Oc1ccccc1)[C@@H](Cc1ccccc1)[C@H](C)OC(=O)[C@H](C)NC(=O)c1nccc(OC)c1OCOC(C)=O` [compound 191], the pest or weed control at 121.5 g/ha in the experiment with Zymoseptoria tritici (setting [1]), in the experiment with Zymoseptoria tritici (setting [4]), in the experiment with Puccinia triticina (setting [3]) and in the experiment with Puccinia triticina (setting [5]) was 80 to 100% each time.
Regarding `CC[C@@H](Oc1ccccc1)[C@@H](Cc1ccccc1)[C@H](C)OC(=O)[C@H](C)NC(=O)c1nccc(OC)c1OCOC(C)=O` [compound 192], the pest or weed control at 121.5 g/ha in the experiment with Zymoseptoria tritici (setting [1]), with Zymoseptoria tritici (setting [4]), in the experiment on Puccinia triticina (setting [3]) and in the experiment on Puccinia triticina (setting [5]) was 80 to 100% in each case.
Take `CC[C@H](Oc1ccccc1)[C@@H](Cc1ccccc1)[C@H](C)OC(=O)[C@H](C)NC(=O)c1nccc(OC)c1OC(C)=O` [compound 193]: the pest or weed control at 121.5 g/ha in the experiment with Zymoseptoria tritici (setting [1]) lay in the range of 80 to 100%; in the experiment with Zymoseptoria tritici (setting [4]), 0 to 80%; with Puccinia triticina (setting [3]), 80 to 100%; with Puccinia triticina (setting [5]) it was 80 to 100%.
On to `CC[C@@H](Oc1ccccc1)[C@@H](Cc1ccccc1)[C@H](C)OC(=O)[C@H](C)NC(=O)c1nccc(OC)c1OC(C)=O` [compound 194], for which the pest or weed control at 121.5 g/ha in the experiment on Zymoseptoria tritici (setting [1]) was 80 to 100%; in the experiment on Zymoseptoria tritici (setting [4]), 80 to 100%; with Puccinia triticina (setting [3]), 80 to 100%; in the experiment on Puccinia triticina (setting [5]) it was 0 to 80%.
Consider `COc1ccnc(C(=O)N[C@@H](C)C(=O)O[C@@H](C)[C@H](Cc2ccccc2)c2ccccc2)c1OCOC(C)=O` [compound 195], for which the pest or weed control at 121.5 g/ha in the experiment on Zymoseptoria tritici (setting [1]), with Zymoseptoria tritici (setting [4]), in the experiment with Puccinia triticina (setting [3]) and with Puccinia triticina (setting [5]) was 80 to 100% throughout.
Take `COc1ccnc(C(=O)N[C@@H](C)C(=O)O[C@@H](C)[C@H](Cc2ccccc2)c2ccccc2)c1OC(C)=O` [compound 196]: the pest or weed control at 121.5 g/ha lay within 80 to 100% in the experiment with Zymoseptoria tritici (setting [1]), 80 to 100% in the experiment with Zymoseptoria tritici (setting [4]), 80 to 100% in the experiment with Puccinia triticina (setting [3]) and 0 to 80% in the experiment with Puccinia triticina (setting [5]).
`CCCC[C@H](c1ccccc1)[C@H](C)OC(=O)[C@H](C)NC(=O)c1nccc(OC)c1OC(C)=O` [compound 197]: the pest or weed control at 121.5 g/ha in the experiment with Zymoseptoria tritici (setting [1]), with Zymoseptoria tritici (setting [4]), in the experiment with Puccinia triticina (setting [3]) and in the experiment on Puccinia triticina (setting [5]) was 80 to 100% in each case.
For the compound `CCCC[C@H](c1ccccc1)[C@H](C)OC(=O)[C@H](C)NC(=O)c1nccc(OC)c1OC(=O)C(C)C` [compound 198], the pest or weed control at 121.5 g/ha fell in the range of 80 to 100% with Zymoseptoria tritici (setting [1]), 80 to 100% in the experiment with Zymoseptoria tritici (setting [4]), 0 to 80% in the experiment with Puccinia triticina (setting [3]) and 0 to 80% with Puccinia triticina (setting [5]).
Take `CCCC[C@H](c1ccccc1)[C@H](C)OC(=O)[C@H](C)NC(=O)c1nccc(OC)c1OCOC(C)=O` [compound 199]: the pest or weed control at 121.5 g/ha in the experiment on Zymoseptoria tritici (setting [1]), in the experiment with Zymoseptoria tritici (setting [4]), in the experiment on Puccinia triticina (setting [3]) and in the experiment with Puccinia triticina (setting [5]) was 80 to 100% each time.
As for `CCCC[C@H](c1ccccc1)[C@H](C)OC(=O)[C@H](C)NC(=O)c1nccc(OC)c1OCOC(=O)C(C)C` [compound 200], the pest or weed control at 121.5 g/ha with Zymoseptoria tritici (setting [1]), in the experiment with Zymoseptoria tritici (setting [4]), in the experiment with Puccinia triticina (setting [3]) and in the experiment on Puccinia triticina (setting [5]) was 80 to 100% in each case.
For `COc1ccnc(C(=O)N[C@@H](C)C(=O)O[C@@H](C)[C@H](Cc2ccc(Cl)cc2)c2ccccc2)c1OC(C)=O` [compound 201], the pest or weed control at 121.5 g/ha with Zymoseptoria tritici (setting [1]) lay within 80 to 100%; with Zymoseptoria tritici (setting [4]), 0 to 80%; in the experiment on Puccinia triticina (setting [3]), 0 to 80%; with Puccinia triticina (setting [5]), 0 to 80%.
For the compound `COc1ccnc(C(=O)N[C@@H](C)C(=O)O[C@@H](C)[C@H](Cc2ccc(Cl)cc2)c2ccccc2)c1OC(=O)C(C)C` [compound 202], the pest or weed control at 121.5 g/ha in the experiment on Zymoseptoria tritici (setting [1]) fell in the range of 80 to 100%; in the experiment on Zymoseptoria tritici (setting [4]), 80 to 100%; in the experiment with Puccinia triticina (setting [3]) it was 0 to 80%; in the experiment on Puccinia triticina (setting [5]) it was 0 to 80%.

For the origin of these results see US10173971B2, “Picolinamides with fungicidal activity” (DOW AGROSCIENCES LLC, priority 2014, dated 2019).
